Common to all, as to format: in vivo
Common to all, as to settings: sprayed after 8 days, evaluated after 13 days

The test system of assay [1] is Alopecurus myosuroides (ALOMY). Nature of the assay: Glasshouse post-emergence phytotoxicity test, Alopecurus myosuroides (ALOMY). The method, then: (§1) Seeds of Amaranthus retroflexus (AMARE), Echinochloa crus-galli (ECHCG), Digitaria sanguinalis (DIGSA), Lolium perenne (LOLPE), Alopecurus myosuroides (ALOMY), Chenopodium album (CHEAL), and Ipomoea hederacea (IPOHE) were sown in standard sterilised soil in pots. After cultivation for 8 days under controlled conditions in a glasshouse (at 24/16° C., day/night; 14 hours light; 65% humidity), the plants were sprayed at 500 l/Ha with an aqueous spray solution derived from the formulation of the technical active ingredients in a small amount of acetone and a solvent and emulsifier mixture referred to as IF50 (11.12% Emulsogen EL360 TM+44.44% N-methylpyrrolidone+44.44% Dowanol DPM glycol ether), to create a 50 g/l solution which was then diluted using 0.2% Genapol XO80 (CAS Number: 9043-30-5) as diluent to give the desired final dose of test compound. Where active ingredients were applied as mixtures, aqueous spray solutions were prepared as above, containing both active ingredients. The test plants were then grown under controlled conditions in a glasshouse (at 24/16° C., day/night; 14 hours light; 65% humidity) and watered twice daily. After 13 days, the test was evaluated visually for percentage phytotoxicity to the plants (where 100=total damage to plant; 0=no damage to plant) when compared to control untreated plants. Two to four replicates were applied for each treatment in a randomised block test design.
(§2) 22., E=X+Y−(X*Y/100), where • X=average percent phytotoxicity of herbicide A when applied at a certain rate • Y=average percent phytotoxicity using herbicide B when applied at a certain rate • E=the expected effect of the mixture of herbicides A and B as calculated from the Colby formula.

A further assay deals with Lolium perenne (LOLPE). Nature of the assay: Glasshouse post-emergence phytotoxicity test, Lolium perenne (LOLPE). The method, then: as §1, §2
The subject of assay [2] is Digitaria sanguinalis (DIGSA). Nature of the assay: Glasshouse post-emergence phytotoxicity test, Digitaria sanguinalis (DIGSA). The method, then:
as §1, §2

Assay [3] has as its system Echinochloa crus-galli (ECHCG). The assay can be described thus: Glasshouse post-emergence phytotoxicity test, Echinochloa crus-galli (ECHCG). The method, then: as §1, with “Where active ingredients were applied as mixtures, aqueous spray solutions were prepared as above, containing both active ingredients. The test plants were then grown under controlled conditions in a glasshouse (at 24/16° C., day/night; 14 hours light; 65% humidity) and watered twice daily.” left out, “Two to four replicates were applied for each treatment in a randomised block test design.” left out
as §2

Assay [4] has as its system Amaranthus retroflexus (AMARE). Nature of the assay: Glasshouse post-emergence phytotoxicity test, Amaranthus retroflexus (AMARE). As to the method:
as §1, §2

For assay [5], the system named is Chenopodium album (CHEAL). Nature of the assay: Glasshouse post-emergence phytotoxicity test, Chenopodium album (CHEAL). As to the method: as §1, §2
Assay [6] relates to Ipomoea hederacea (IPOHE). Nature of the assay: Glasshouse post-emergence phytotoxicity test, Ipomoea hederacea (IPOHE). The method, then: as §1, §2

Molecules are shown by their SMILES.

On to `C=CCOC(=O)C(C)(C)OC(=O)c1cc(-n2c(=O)cc(C(F)(F)F)n(C)c2=O)ccc1Cl` [B-I], for which the Observed percentage phytotoxicity in assay [1] (rate 0.039 g/ha) amounted to 0%; in assay [1] (rate 0.625 g/ha), 8%; in the assay on Lolium perenne (LOLPE) (rate 0.039 g/ha), 0%; with Lolium perenne (LOLPE) (rate 0.313 g/ha) it was 5%; with Lolium perenne (LOLPE) (rate 0.625 g/ha) it was 5%; in assay [2] (rate 0.156 g/ha), 5%. Besides, the Observed percentage phytotoxicity in assay [2] (rate 0.313 g/ha) is recorded as 10%; in assay [2] (rate 0.625 g/ha), 15%; in assay [3] (rate 0.625 g/ha), 5%; in assay [4] (rate 0.078 g/ha), 33%; in assay [5] (rate 0.156 g/ha), 20%; in assay [5] (rate 0.313 g/ha) it was 40%.
As to `COC(=O)CCNC(=O)C(C)Sc1cc(-n2c(=O)cc(C(F)(F)F)n(C)c2=O)c(F)cc1Cl` (stereo not drawn) [B-II], the Observed percentage phytotoxicity stood at 5% in the assay with Lolium perenne (LOLPE) (rate 0.156 g/ha); 3% in the assay on Lolium perenne (LOLPE) (rate 0.313 g/ha); 8% in assay [2] (rate 0.313 g/ha); 30% in assay [4] (rate 0.078 g/ha); 15% in assay [5] (rate 0.078 g/ha); 18% in assay [5] (rate 0.156 g/ha). Moreover, the figures for the Observed percentage phytotoxicity in assay [5] (rate 0.313 g/ha), in assay [6] (rate 0.156 g/ha) and in assay [6] (rate 0.313 g/ha) were 18%, 18% and 40%, respectively.
As to `COC(=O)[C@@H](C)O/N=C/c1cc(-n2c(=O)cc(C(F)(F)F)n(C)c2=O)c(F)cc1Cl` [A], the Observed percentage phytotoxicity in assay [1] (rate 0.039 g/ha) stood at 0%; in assay [1] (rate 0.313 g/ha), 3%; with Lolium perenne (LOLPE) (rate 0.078 g/ha), 3%; in the assay on Lolium perenne (LOLPE) (rate 0.156 g/ha), 0%; in the assay on Lolium perenne (LOLPE) (rate 0.313 g/ha) it was 5%; in assay [2] (rate 0.156 g/ha), 3%. Also, the Observed percentage phytotoxicity in assay [2] (rate 0.313 g/ha) turned out to be 9%; in assay [3] (rate 0.313 g/ha), 1%; in assay [4] (rate 0.078 g/ha), 39%; in assay [4] (rate 0.156 g/ha) it was 68%; in assay [5] (rate 0.156 g/ha), 24%; in assay [5] (rate 0.313 g/ha), 31%. The Observed percentage phytotoxicity is recorded as 33% in assay [5] (rate 0.625 g/ha), 20% in assay [6] (rate 0.078 g/ha) and 68% in assay [6] (rate 0.313 g/ha).
In the case of `c1cc[n+]2c(c1)-c1cccc[n+]1CC2` [B-III], the Observed percentage phytotoxicity in assay [4] (rate 3.75 g/ha) came out at 8%; in assay [5] (rate 15 g/ha), 15%; in assay [6] (rate 7.5 g/ha) it was 5%.

(Values after patent US20260182572A1, “HERBICIDAL COMPOSITIONS” (SYNGENTA CROP PROTECTION AG, priority 2022, published 2026).)
